In PubChem BioAssay (NCI):
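Interpolation was linear, between the two tested concentrations surrounding the appropriate level; five concentrations were tested over 48 hours in 96-well plates. TGI marks complete inhibition of growth.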

Tests used:
Test in all cases: growth of human tumour cells (NCI), 48 h
T-47D breast = tested on: T-47D breast
SF-295 CNS = tested on: SF-295 CNS
K-562 leukemia = tested on: K-562 leukemia
SN12C renal = tested on: SN12C renal
ACHN renal = tested on: ACHN renal
HCT-15 colon = tested on: HCT-15 colon
MDA-MB-435 = tested on: MDA-MB-435
HCC-2998 colon = tested on: HCC-2998 colon
MDA-MB-231 breast = tested on: MDA-MB-231 breast
SNB-75 CNS = tested on: SNB-75 CNS
NCI-H226 lung = tested on: NCI-H226 lung
OVCAR-5 ovarian = tested on: OVCAR-5 ovarian

Structure (SMILES) | TGI (T-47D breast) | TGI (SF-295 CNS) | TGI (K-562 leukemia) | TGI (SN12C renal) | TGI (ACHN renal) | TGI (HCT-15 colon) | TGI (MDA-MB-435) | TGI (HCC-2998 colon) | TGI (MDA-MB-231 breast) | TGI (SNB-75 CNS) | TGI (NCI-H226 lung) | TGI (OVCAR-5 ovarian)
COC(=O)C1CCC(=O)N1C(c1ccc2c(c1)OCO2)c1ccc2c(c1)OCO2 (stereo not given) | > 100 µM | > 100 µM | > 100 µM | > 100 µM | > 100 µM | > 100 µM | > 100 µM | > 100 µM | > 100 µM | > 100 µM | > 100 µM | > 100 µM
CC1(C)CC[C@]2(C(=O)O)CC[C@]3(C)C(=CC[C@@H]4[C@@]5(C)CC[C@H](OC6OC(CO)C(O)C(O)C6OC6OC(CO)C(O)C(O)C6O)C(C)(C)[C@@H]5CC[C@]43C)[C@@H]2C1 (stereo not given in full) | 44.8 µM | 36 µM | 44.6 µM | 33.2 µM | 32.7 µM | 35.3 µM | 35.7 µM | 36.2 µM | 51.9 µM | 36.3 µM | 34.7 µM | 12.5 µM
CN1CCN(c2ccc(-n3cc(C(=O)O)c(=O)c4cc(F)c(N5CCN(C)CC5)cc43)nc2)CC1 | > 100 µM | > 100 µM | > 100 µM | > 100 µM |  | > 100 µM | > 100 µM |  | > 100 µM | > 100 µM | > 100 µM | > 100 µM
CCc1n[nH]c(=O)n1NC(=O)/C=C\C(=O)O | > 100 µM | > 100 µM | > 100 µM | > 100 µM |  | > 100 µM | > 100 µM | > 100 µM | > 100 µM | > 100 µM | > 100 µM | > 100 µM
C=C(C(=O)O)[C@@H]1C[C@@H]2O[C@H]1CC(C)=CCC/C(C)=C/CC[C@@]2(C)O | > 100 µM | > 100 µM | > 100 µM | > 100 µM | > 100 µM | > 100 µM | > 100 µM | > 100 µM | > 100 µM | > 100 µM | > 100 µM | > 100 µM
CCn1cnc2c(NC(C)=O)ncnc21 | > 100 µM | > 100 µM | > 100 µM | > 100 µM | > 100 µM | > 100 µM | > 100 µM | > 100 µM | > 100 µM | > 100 µM | > 100 µM | > 100 µM
CN(C)/C=N/S(=O)(=O)c1nn2c(C=O)c(-c3ccc(-c4ccc([N+](=O)[O-])cc4)o3)nc2s1 | > 44.6 µM | > 46.5 µM |  | 4.57 µM | 8.99 µM | 12.5 µM | 7.41 µM | 14.7 µM | 20 µM | 36.6 µM | > 64.7 µM | > 30.5 µM
Cc1ccc(C)c(NC(=O)C(Cc2c[nH]c3ccccc23)NC(=O)OCc2ccccc2)c1 (stereo not given) | 38 µM | > 100 µM | 28.9 µM | > 100 µM | > 100 µM | > 100 µM | > 100 µM |  | 47.4 µM | 27.9 µM |  | > 100 µM
O=C(O)C(F)(OC(F)(F)C(F)(OC(F)(F)C(F)(F)C(F)(F)F)C(F)(F)F)C(F)(F)F (stereo not given) | > 100 µM | > 100 µM | > 100 µM | > 100 µM | > 100 µM | > 100 µM | > 100 µM | > 100 µM | > 100 µM | > 100 µM | > 100 µM | > 100 µM
c1ccc2c(c1)C(=Nc1ccc(N=C3c4ccccc4-c4ccccc43)cc1)c1ccccc1-2 | > 100 µM | > 100 µM | > 100 µM | > 100 µM |  | > 100 µM | > 100 µM | > 100 µM | > 100 µM |  | > 100 µM | > 100 µM
C[C@@H]1OC(=O)/C(=C\N(C)C)[C@H]2CC(=O)N(CCc3cn(S(=O)(=O)C(F)(F)F)c4ccccc34)C[C@H]12 | > 100 µM | > 100 µM | > 100 µM | > 100 µM | > 100 µM | > 100 µM | > 100 µM | > 100 µM | > 100 µM | > 100 µM | > 100 µM | > 100 µM
CC(C)=CCC[C@H](C)[C@H]1CC[C@@H](C)c2cc(O)c(C)cc21 | 36.8 µM | 32.2 µM | 46.8 µM | 29.8 µM | 30.6 µM | 35.1 µM | 38.8 µM | 33.7 µM | 34 µM | 38.6 µM | 33.3 µM | 30.7 µM
CCOC1SC(SC)=NN1C(=O)C(OC(C)=O)C(OC(C)=O)C(OC(C)=O)C(OC(C)=O)C(=O)N1N=C(SC)SC1OCC (stereo not given) | > 100 µM | > 100 µM | > 100 µM | > 100 µM | > 100 µM | > 100 µM | > 100 µM | > 100 µM | > 100 µM | > 100 µM | > 100 µM | > 100 µM
COC(Cc1ccccc1)NC(C)=O (stereo not given) | > 100 µM | > 100 µM | > 100 µM | > 100 µM | > 100 µM | > 100 µM | > 100 µM | > 100 µM | > 100 µM | > 100 µM | > 100 µM | > 100 µM
Cc1n[nH]c(=O)n1N1C(=O)c2ccccc2C1=O | > 100 µM | > 100 µM | > 100 µM | > 100 µM | > 100 µM | > 100 µM | > 100 µM | > 100 µM | > 100 µM | > 100 µM | > 100 µM | > 100 µM
Cc1cc(C#N)c(Nc2c(C)cccc2[N+](=O)[O-])s1 | > 100 µM | > 100 µM | > 100 µM | > 100 µM | > 100 µM | > 100 µM | > 100 µM | > 100 µM | 79.4 µM | 72.2 µM | > 100 µM | > 100 µM
Cc1nc(C)c(N2CCN(C#N)CC2)c(=O)[nH]1 | > 100 µM | > 100 µM | > 100 µM | > 100 µM | > 100 µM | > 100 µM | > 100 µM | > 100 µM | > 100 µM | > 100 µM | > 100 µM | 
